Source: US20120053144A1, “Cobalamin Taxane Bioconjugates For Treating Eye Disease” (Osiris Therapeutics, Inc., priority 2009, published 2012)

Tested on: choroidal neovascularization
Test: Choroidal neovascularization model (argon laser scarring, fluorescein leakage scoring)
Format: in vivo, rats
Conditions: rat eye, laser-induced, treated on day 0
Procedure: Groups of rats were neovascularized by argon laser scarring on an eye. At the same time (day 0), the eye was immediately treated with the cobalamin-paclitaxel bioconjugate (CT-101) prepared in accordance with Example 1. Two concentrations, one higher and one lower, were tested. The treatment regimen also included a vehicle and KENACORT® RETARD (4% triamcinolone acetonide), as a positive control. The treated eyes were evaluated for inhibition of neovascularization on days 7, 14 and 21 by infusing the eye with fluorescein and scoring the leakage from each spot. The leakage of fluorescein on the photographies of the angiograms from each spot were evaluated by two examiners using an HRA (Heidelberg's Retinal Angiograph) in a masked fashion and graded as follows:
Score 1: slightly stained;
Score 2: moderate stained;
Score 3: strongly stained.

Substance: B12-5′-OCONH(CH2)5CO-Phe-Lys-PABC-7-Taxol [CT-101]
- inhibition of neovascularization (fluorescein leakage score) (Day 14, both concentrations (higher and lower)): measurable effect
- inhibition of neovascularization (fluorescein leakage score) (effect over 7 days relative to vehicle and positive control): marked angiogenic effect relative to the vehicle over 7 days, and was comparable in effect to the positive control
